For one experiment, the system named is HCV genotype 1b replicon. Put plainly: HCV replicon assay, genotype 1b replicon EC50. The class given is cell-based, Hepatitis C virus. The settings on record: Hepatitis C virus, genotype 1b replicon, read-out: EC50 [gt-1b]. A digest of the protocol:
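Readout was replicon RNA copy number, by 32P-probe protection or TaqMan normalized to cellular cyclophilin A RNA, or luciferase activity for luciferase:Neo^r fusion lines. Cells were exposed to serially diluted compound for 24-48 hours without G418, then washed and lysed. EC50 derived from four-parameter fit relative to DMSO.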
(In general: A replicon is a self-replicating genome or part of one, used to study replication in cells.)

Experiment [1] deals with HCV NS3/4A protease genotype 1b (Hepatitis C virus genotype 1b, UniProt P26663). Put plainly: HCV NS3/4A protease time-resolved fluorescence (TRF) assay, Ki against genotype 1b. It is filed as biochemical. The note with it: IC50 [gt-1b] (nM), NS3/4A genotype 1b, enzyme 0.2 nM. A digest of the protocol: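 Enzyme was pre-incubated 30 min with inhibitor in HEPES pH 7.5 buffer (150 mM NaCl, 15% glycerol, 10 mM DTT). Reaction ran 2.5 h at room temperature with 25 nM europium TRF peptide substrate, read at ex 340/em 615 nm. Enzyme levels: 0.2 nM (1b), 0.4 nM (A156T), 0.025 nM (3a). Ki came from four-parameter IC50 via IC50=Ki(1+[S]/KM).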

Our source for the EC50 and IC50 values is patent US8987195B2 (priority 2012, dated 2015).

pEC50: −log10 of the molar value. Like-named read-outs stand apart in the source and are kept apart here.

Regarding `Cc1nc2c(F)cccc2c2c1O[C@]1(CC2)C[C@H]2C(=O)NC3(C(=O)NS(=O)(=O)C4(C)CC4)C[C@H]3/C=C\CCCCC[C@H](NC(=O)OC(C)(C)C)C(=O)N2C1` (stereo partly drawn) [Example 45, tert-Butyl (1aR,3aS,3′R,9S,16aS,Z)-7′-fluoro-5′-methyl-1a-(1-methylcyclopropylsulfonylcarbamoyl)-3,8-dioxo-1a,1′,2,2′,3,3a,4,6,8,9,10,11,12,13,14,16a-hexadecahydro-1H-spiro[cyclopropa[e]pyrrolo[1,2-a][1,4]diazacyclopentadecine-5,3′-pyrano[2,3-c]quinoline]-9-ylcarbamate], in the experiment with HCV genotype 1b replicon, the pEC50 (usually the EC50 on a negative log10 scale, so that one unit is a factor of ten) was 8.96. Moreover, in experiment [1], the IC50 (commonly the concentration that gives 50% inhibition) was 0.011 nM.
Take `COc1ccc2nc(C3CCC3)c3c(c2c1)CC[C@]1(C[C@H]2C(=O)NC4(C(=O)NS(=O)(=O)C5(C)CC5)C[C@H]4/C=C\CCCCC[C@H](NC(=O)OC(C)(C)C)C(=O)N2C1)O3` (stereo partly drawn) [Example 46, tert-Butyl (1aR,3aS,3′R,9S,16aS,Z)-5′-cyclobutyl-9′-methoxy-1a-(1-methylcyclopropylsulfonylcarbamoyl)-3,8-dioxo-1a,1′,2,2′,3,3a,4,6,8,9,10,11,12,13,14,16a-hexadecahydro-1H-spiro[cyclopropa[e]pyrrolo[1,2-a][1,4]diazacyclopentadecine-5,3′-pyrano[2,3-c]quinoline]-9-ylcarbamate]: the pEC50 in the experiment on HCV genotype 1b replicon (K+ salt) is 9.40. Further, the IC50 in experiment [1] (K+ salt) is 0.02 nM.
As for `Cc1nc2ccccc2c2c1O[C@]1(CC2)C[C@H]2C(=O)N[C@]3(C(=O)NS(=O)(=O)C4(C)CC4)C[C@H]3/C=C\CCCCC[C@H](NC(=O)OC(C)(C)C(F)(F)F)C(=O)N2C1` [Example 47], the pEC50 with HCV genotype 1b replicon (GETYPE1B|GT1B) is 8.43. Besides, 0.011 nM corresponded to half-maximal inhibition in experiment [1] (IC50).
On to `COc1ccc2nc(CC(F)(F)F)c3c(c2c1)CC[C@]1(C[C@H]2C(=O)N[C@]4(C(=O)NS(=O)(=O)C5(C)CC5)C[C@H]4/C=C\CCCCC[C@H](NC(=O)OCC(C)(C)C)C(=O)N2C1)O3` [Example 48, Neopentyl((2R,6S,13aS,14aR,16aS,Z)-9′-methoxy-14a-(((1-methylcyclopropyl)sulfonyl)carbamoyl)-5,16-dioxo-5′-(2,2,2-trifluoroethyl)-1′,2′,3,5,6,7,8,9,10,11, 13a,14,14a,15,16,16a-hexadecahydro-1H-spiro[cyclopropa[e]pyrrolo[1,2-a][1,4]diazacyclopentadecine-2,3′-pyrano[2,3-c]quinolin]-6-yl)carbamate], for which, in the experiment with HCV genotype 1b replicon, the pEC50 is 8.96. The compound further registered an IC50 in experiment [1] of 0.006 nM.
Consider `COCCCOc1ccc2nc(C(F)(F)F)c3c(c2c1)CC[C@]1(C[C@H]2C(=O)N[C@]4(C(=O)NS(=O)(=O)C5(C)CC5)C[C@H]4/C=C\CCCCC[C@H](NC(=O)OC(C)(C)C)C(=O)N2C1)O3` [Example 51, tert-Butyl ((2R,6S,13aS,14aR,16aS,Z)-9′-(3-methoxypropoxy)-14a-(((1-methylcyclopropyl)sulfonyl)carbamoyl)-5,16-dioxo-5′-(trifluoromethyl)-1′,2′,3,5,6,7,8,9,10,11,13a, 14,14a,15,16,16a-hexadecahydro-1H-spiro[cyclopropa[e]pyrrolo[1,2-a][1,4]diazacyclopentadecine-2,3′-pyrano[2,3-c]quinolin]-6-yl)carbamate], for which the pEC50 with HCV genotype 1b replicon (K+ salt) was 9.61. For the same compound, the IC50 in experiment [1] (K+ salt) was found to be 0.011 nM.
Regarding `COc1ccc2nc(C(F)(F)F)c3c(c2c1)[C@H](O)C[C@]1(C[C@H]2C(=O)N[C@]4(C(=O)NS(=O)(=O)C5(C)CC5)C[C@H]4/C=C\CCCCC[C@H](NC(=O)OC(C)(C)C)C(=O)N2C1)O3` [Example 54, tert-Butyl [(1′R,2S,6S,12Z,13aS,14aR,16aS)-1′-hydroxy-9′-methoxy-14a-{[(1-methylcyclopropyl)sulfonyl]carbamoyl}-5,16-dioxo-5′-(trifluoromethyl) -1,1′,2′,5,6,7,8,9,10,11,13a,14,14a,15,16,16a-hexadecahydrospiro[cyclopropa[e]pyrrolo[1,2-a][1,4]diazacyclopentadecine-2,3′-pyrano[2,3-c]quinolin]-6-yl]carbamate], in the experiment with HCV genotype 1b replicon, the pEC50 was 8.93. For the same compound, in experiment [1], the IC50 is 0.012 nM.
As to `COc1ccc2nc(C(F)(F)F)c3c(c2c1)[C@@H](O)C[C@]1(C[C@H]2C(=O)N[C@]4(C(=O)NS(=O)(=O)C5(C)CC5)C[C@H]4/C=C\CCCCC[C@H](NC(=O)OC(C)(C)C)C(=O)N2C1)O3` [Example 55, tert-Butyl [(1′S,2S,6S,12Z,13aS,14aR,16aS)-1′-hydroxy-9′-methoxy-14a-{[(1-methylcyclopropyl)sulfonyl]carbamoyl}-5,16-dioxo-5′-(trifluoromethyl) -1,1′,2′,5,6,7,8,9,10,11,13a,14,14a,15,16,16a-hexadecahydrospiro[cyclopropa[e]pyrrolo[1,2-a][1,4]diazacyclopentadecine-2,3′-pyrano[2,3-c]quinolin]-6-yl]carbamate], the pEC50 in the experiment with HCV genotype 1b replicon was 9.24. The same compound had an IC50 in experiment [1] of 0.007 nM.
In the case of `COc1ccc2nc(C)c3c(c2c1)[C@H](F)C[C@]1(C[C@H]2C(=O)N[C@]4(C(=O)NS(=O)(=O)C5(C)CC5)C[C@H]4/C=C\CCCCC[C@H](NC(=O)OC(C)(C)C)C(=O)N2C1)O3` [Example 56, tert-Butyl ((1′R,2S,6S,13aS,14aR,16aS,Z)-1′-fluoro-9′-methoxy-5′-methyl-14a-(((1-methylcyclopropyl)sulfonyl)carbamoyl)-5,16-dioxo-1′,2′,3,5,6,7,8,9,10,11,13a,14,14a, 15,16,16a-hexadecahydro-1H-spiro[cyclopropa[e]pyrrolo[1,2-a][1,4]diazacyclopentadecine-2,3′-pyrano[2,3-c]quinolin]-6-yl)carbamate], the pEC50 in the experiment on HCV genotype 1b replicon (K+ salt) was 8.78. Also, the IC50 in experiment [1] (K+ salt) turned out to be 0.008 nM.
`COc1ccc2nc(C)c3c(c2c1)CC[C@]1(C[C@H]2C(=O)N[C@]4(C(=O)NS(=O)(=O)C5(C)CC5)C[C@H]4/C=C\CCCCC[C@H](Nc4ncccn4)C(=O)N2C1)O3` [Example 57, (2R,6S,13aS,14aR,16aS,Z)-9′-methoxy-5′-methyl-N-((1-methylcyclopropyl)sulfonyl)-5,16-dioxo-6-(pyrimidin-2-ylamino)-1′,2′,3,5,6,7,8,9,10,11,13a,14,14a,15,16,16a-hexadecahydro-1H-spiro[cyclopropa[e]pyrrolo[1,2-a][1,4]diazacyclopentadecine-2,3′-pyrano[2,3-c]quinoline]-14a-carboxamide]: the pEC50 with HCV genotype 1b replicon is 8.03. For the same compound, the 50% inhibitory concentration (IC50) in experiment [1] came out at 0.137 nM.
In the case of `Cc1nc2ccc(C#N)cc2c2c1O[C@]1(CC2)C[C@H]2C(=O)N[C@]3(C(=O)NS(=O)(=O)C4(C)CC4)C[C@H]3/C=C\CCCCC[C@H](NC(=O)OC(C)(C)C)C(=O)N2C1` [Example 59, tert-Butyl ((2R,6S,13aS,14aR,16aS,Z)-9′-cyano-5′-methyl-14a-(((1-methylcyclopropyl)sulfonyl)carbamoyl)-5,16-dioxo-1′,2′,3,5,6,7,8,9,10,11,13a,14,14a,15,16,16a-hexadecahydro-1H-spiro[cyclopropa[e]pyrrolo[1,2-a][1,4]diazacyclopentadecine-2,3′-pyrano[2,3-c]quinolin]-6-yl)carbamate], in the experiment with HCV genotype 1b replicon, the pEC50 is 8.46. The compound also displayed an IC50 in experiment [1] of 0.019 nM.
In the case of `CC(C)(C)OC(=O)N[C@H]1CCCCC/C=C\[C@@H]2C[C@@]2(C(=O)NS(=O)(=O)C2(C)CC2)NC(=O)[C@@H]2C[C@]3(CCc4c(c(C(F)(F)F)nc5ccc(OCCO)cc45)O3)CN2C1=O` [Example 60, tert-Butyl ((2R,6S,13aS,14aR,16aS,Z)-9′-(2-hydroxyethoxy)-14a-(((1-methylcyclopropyl)sulfonyl)carbamoyl)-5,16-dioxo-5′-(trifluoromethyl)-1′,2′,3,5,6,7,8,9,10,11,13a, 14,14a,15,16,16a-hexadecahydro-1H-spiro[cyclopropa[e]pyrrolo[1,2-a][1,4]diazacyclopentadecine-2,3′-pyrano[2,3-c]quinolin]-6-yl)carbamate], in the experiment on HCV genotype 1b replicon, the pEC50 was 8.91. Besides, the IC50 in experiment [1] came to 0.009 nM.
On the same counts, the results for `Cc1nc2ccccc2c2c1O[C@]1(CC2)C[C@H]2C(=O)N[C@]3(C(=O)NS(=O)(=O)C4(C)CC4)C[C@H]3/C=C\CCCCC[C@H](NC(=O)N3CCCC3)C(=O)N2C1` [Example 61, (2R,6S,12Z,13aS,14aR,16aS)-5′-methyl-N-[(1-methylcyclopropyl)sulfonyl]-5,16-dioxo-6-[(pyrrolidin-1-ylcarbonyl)amino]-1,1′,2′,6,7,8,9,10,11,13a,14,15,16,16a-tetradecahydrospiro[cyclopropa[e]pyrrolo[1,2-a][1,4]diazacyclopentadecine-2,3′-pyrano[2,3-c]quinoline]-14a(5H)-carboxamide] are 7.91 and 0.015 nM.
On the same counts, the results for `COc1ccc2nc(C(F)(F)F)c3c(c2c1)C=C[C@]1(CN2C(=O)[C@@H](NC(=O)OC(C)(C)C)CCCCC/C=C\[C@@H]4C[C@@]4(C(=O)NS(=O)(=O)C4(C)CC4)NC(=O)[C@@H]2C1C)O3` (stereo partly drawn) [Example 62, tert-Butyl ((2S,6S,13aS,14aR,16aS,Z)-9′-methoxy-1-methyl-14a-(((1-methylcyclopropyl)sulfonyl)carbamoyl)-5,16-dioxo-5′-(trifluoromethyl)-3,5,6,7,8,9,10,11,13a, 14,14a,15,16,16a-tetradecahydro-1H-spiro[cyclopropa[e]pyrrolo[1,2-a][1,4]diazacyclopentadecine-2,3′-pyrano[2,3-c]quinolin]-6-yl)carbamate] are 9.59 and 0.016 nM.
